Key:
L929 = assay: Cytotoxicity test (cell counting kit-8); type: cell-based; conditions: Mus musculus, WST-8
Description: (§1) Cell counting kit-8 assay is a general test method for identifying cell viability using a pale yellow tetrazolium salt called “WST-8”. WST-8, which is soluble in water, is degraded by a dehydrogenase present in the cells, forming orange formazan. Formazan dye is formed by dehydrogenase activity proportional to the number of viable cells, and thus can be used as an indicator for cell viability. The Hill equation of Graphpad Prism was used for analysis.

HFL-1 = assay: Cytotoxicity test (cell counting kit-8); type: cell-based; conditions: Homo sapiens, HFL1, WST-8
Description: as §1

NIH3T3 = assay: Cytotoxicity test (cell counting kit-8); type: cell-based; conditions: Mus musculus, WST-8
Description: as §1

JAK2(V617F) = biological target: T1, JAK2(V617F) (Homo sapiens, UniProt O60674, V617F); assay: Kinase screening, HotSpot assay (Reaction Biology); type: biochemical
T1 construct: purchased Reaction Biology Corporation
T1 sequence (O60674 whole entry V617F): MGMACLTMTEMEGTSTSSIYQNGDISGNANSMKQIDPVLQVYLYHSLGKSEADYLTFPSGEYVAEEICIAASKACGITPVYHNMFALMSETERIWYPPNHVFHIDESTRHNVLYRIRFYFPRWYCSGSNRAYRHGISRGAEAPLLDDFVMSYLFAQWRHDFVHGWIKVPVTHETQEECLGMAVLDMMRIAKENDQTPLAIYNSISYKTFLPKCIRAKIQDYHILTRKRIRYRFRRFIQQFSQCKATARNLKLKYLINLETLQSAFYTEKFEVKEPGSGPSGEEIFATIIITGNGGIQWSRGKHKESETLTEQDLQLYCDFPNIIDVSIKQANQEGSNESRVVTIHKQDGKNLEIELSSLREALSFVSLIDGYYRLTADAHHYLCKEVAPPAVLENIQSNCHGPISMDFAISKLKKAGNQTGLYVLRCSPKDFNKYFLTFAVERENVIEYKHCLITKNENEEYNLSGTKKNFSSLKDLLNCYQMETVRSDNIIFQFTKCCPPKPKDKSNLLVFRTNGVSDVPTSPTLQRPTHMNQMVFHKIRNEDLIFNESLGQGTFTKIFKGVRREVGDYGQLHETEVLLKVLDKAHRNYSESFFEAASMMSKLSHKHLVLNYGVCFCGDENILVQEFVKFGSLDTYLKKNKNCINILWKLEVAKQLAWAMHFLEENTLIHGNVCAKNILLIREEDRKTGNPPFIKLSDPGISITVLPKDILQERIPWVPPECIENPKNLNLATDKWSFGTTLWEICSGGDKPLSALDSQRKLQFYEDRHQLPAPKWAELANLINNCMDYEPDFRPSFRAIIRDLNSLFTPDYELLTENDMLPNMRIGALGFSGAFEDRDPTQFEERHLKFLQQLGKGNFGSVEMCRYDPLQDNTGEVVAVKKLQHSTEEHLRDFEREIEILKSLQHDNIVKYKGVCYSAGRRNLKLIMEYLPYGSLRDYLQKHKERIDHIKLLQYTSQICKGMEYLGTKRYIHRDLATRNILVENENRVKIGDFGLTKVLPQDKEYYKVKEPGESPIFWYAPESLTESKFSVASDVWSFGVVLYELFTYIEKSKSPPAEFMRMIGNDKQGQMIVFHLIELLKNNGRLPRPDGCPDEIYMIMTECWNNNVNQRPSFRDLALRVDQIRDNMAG
Procedure: (§2) Kinase screening was performed using a “HotSpot” assay platform method by Reaction Biology Corporation. The reaction buffer used herein contained 20 mM HEPES (pH 7.5), 10 mM MgCl2, 1 mM EGTA, 0.02% Brij35, 0.02 mg/mL BSA, 0.1 mM Na3VO4, 2 mM DTT and 1% DMSO. The required cofactors were added in accordance with the kinase reaction. Freshly made buffer and cofactors were added at a concentration of 20 μM during the selected enzyme reaction. A solution of the test compound in dimethylsulfoxide (DMSO) was added at a suitable concentration to this solution. In order to initiate reaction, […] (specific activity […]) was added and incubated at room temperature for 2 hours. The test compound was screened at a starting concentration of 20 μM in a 10-dose IC50 mode. IC50 of Staurosporine used as a control drug was obtained at a starting concentration of 20 μM in a 10-dose IC50 mode.

JAK2 = biological target: T2, JAK2 (Homo sapiens, UniProt O60674); assay: Kinase screening, HotSpot assay (Reaction Biology); type: biochemical
T2 construct: purchased Reaction Biology Corporation
T2 sequence (O60674 whole entry): as the sequence (O60674 whole entry V617F) above, with F617V counted along it
Procedure: as §2

ARK5/NUAK1 = biological target: T3, ARK5/NUAK1 (Homo sapiens, UniProt O60285); assay: Kinase screening, HotSpot assay (Reaction Biology); type: biochemical
T3 construct: purchased Reaction Biology Corporation
T3 sequence (O60285 1-661): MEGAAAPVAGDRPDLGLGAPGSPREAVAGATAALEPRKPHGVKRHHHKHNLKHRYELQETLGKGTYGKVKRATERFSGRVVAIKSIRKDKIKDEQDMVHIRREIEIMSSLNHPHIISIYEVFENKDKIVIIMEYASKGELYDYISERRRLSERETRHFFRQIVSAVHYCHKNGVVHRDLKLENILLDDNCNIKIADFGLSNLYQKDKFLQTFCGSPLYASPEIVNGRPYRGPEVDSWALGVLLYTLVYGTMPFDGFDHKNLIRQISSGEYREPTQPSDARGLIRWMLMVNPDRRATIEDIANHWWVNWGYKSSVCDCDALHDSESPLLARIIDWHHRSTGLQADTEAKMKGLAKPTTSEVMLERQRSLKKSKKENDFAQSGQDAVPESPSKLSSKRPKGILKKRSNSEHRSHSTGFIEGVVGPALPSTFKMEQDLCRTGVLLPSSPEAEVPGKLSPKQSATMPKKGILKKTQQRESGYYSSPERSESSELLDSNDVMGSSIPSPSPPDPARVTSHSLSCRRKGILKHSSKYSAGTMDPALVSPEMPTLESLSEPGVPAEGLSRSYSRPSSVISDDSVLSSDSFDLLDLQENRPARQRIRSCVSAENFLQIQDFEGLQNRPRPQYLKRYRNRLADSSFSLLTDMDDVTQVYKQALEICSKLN
Procedure: as §2

ACK1 = biological target: T4, ACK1 (Homo sapiens, UniProt Q07912); assay: Kinase screening, HotSpot assay (Reaction Biology); type: biochemical
T4 construct: purchased Reaction Biology Corporation
T4 sequence (Q07912 whole entry): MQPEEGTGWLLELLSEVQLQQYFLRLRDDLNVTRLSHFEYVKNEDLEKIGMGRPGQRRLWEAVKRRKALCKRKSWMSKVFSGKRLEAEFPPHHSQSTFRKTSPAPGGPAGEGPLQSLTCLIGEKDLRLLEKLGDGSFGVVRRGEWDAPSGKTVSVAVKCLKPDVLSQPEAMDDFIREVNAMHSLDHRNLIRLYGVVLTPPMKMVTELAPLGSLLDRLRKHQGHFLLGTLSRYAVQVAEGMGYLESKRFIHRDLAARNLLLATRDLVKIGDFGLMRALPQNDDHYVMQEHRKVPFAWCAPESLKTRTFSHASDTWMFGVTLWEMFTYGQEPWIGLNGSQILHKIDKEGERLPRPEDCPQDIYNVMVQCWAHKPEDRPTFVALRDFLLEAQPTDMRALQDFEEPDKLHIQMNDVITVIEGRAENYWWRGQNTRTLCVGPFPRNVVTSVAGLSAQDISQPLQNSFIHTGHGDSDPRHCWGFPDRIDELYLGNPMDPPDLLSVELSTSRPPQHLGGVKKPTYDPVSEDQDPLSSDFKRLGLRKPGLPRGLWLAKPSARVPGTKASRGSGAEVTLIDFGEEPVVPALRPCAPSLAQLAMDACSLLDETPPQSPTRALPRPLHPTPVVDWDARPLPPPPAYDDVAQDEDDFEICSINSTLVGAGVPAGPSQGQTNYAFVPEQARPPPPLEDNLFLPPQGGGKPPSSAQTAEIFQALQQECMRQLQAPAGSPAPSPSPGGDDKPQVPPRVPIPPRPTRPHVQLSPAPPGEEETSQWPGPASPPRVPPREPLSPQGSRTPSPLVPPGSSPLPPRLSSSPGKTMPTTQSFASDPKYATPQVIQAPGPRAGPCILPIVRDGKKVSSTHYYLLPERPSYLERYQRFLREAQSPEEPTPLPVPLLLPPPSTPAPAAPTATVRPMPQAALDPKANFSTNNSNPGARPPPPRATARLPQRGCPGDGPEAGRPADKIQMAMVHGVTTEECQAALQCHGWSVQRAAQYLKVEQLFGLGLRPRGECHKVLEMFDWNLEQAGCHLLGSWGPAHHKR
Procedure: as §2

JAK1 = biological target: T5, JAK1 (Homo sapiens, UniProt P23458); assay: Kinase screening, HotSpot assay (Reaction Biology); type: biochemical
T5 construct: purchased Reaction Biology Corporation
T5 sequence (P23458 whole entry): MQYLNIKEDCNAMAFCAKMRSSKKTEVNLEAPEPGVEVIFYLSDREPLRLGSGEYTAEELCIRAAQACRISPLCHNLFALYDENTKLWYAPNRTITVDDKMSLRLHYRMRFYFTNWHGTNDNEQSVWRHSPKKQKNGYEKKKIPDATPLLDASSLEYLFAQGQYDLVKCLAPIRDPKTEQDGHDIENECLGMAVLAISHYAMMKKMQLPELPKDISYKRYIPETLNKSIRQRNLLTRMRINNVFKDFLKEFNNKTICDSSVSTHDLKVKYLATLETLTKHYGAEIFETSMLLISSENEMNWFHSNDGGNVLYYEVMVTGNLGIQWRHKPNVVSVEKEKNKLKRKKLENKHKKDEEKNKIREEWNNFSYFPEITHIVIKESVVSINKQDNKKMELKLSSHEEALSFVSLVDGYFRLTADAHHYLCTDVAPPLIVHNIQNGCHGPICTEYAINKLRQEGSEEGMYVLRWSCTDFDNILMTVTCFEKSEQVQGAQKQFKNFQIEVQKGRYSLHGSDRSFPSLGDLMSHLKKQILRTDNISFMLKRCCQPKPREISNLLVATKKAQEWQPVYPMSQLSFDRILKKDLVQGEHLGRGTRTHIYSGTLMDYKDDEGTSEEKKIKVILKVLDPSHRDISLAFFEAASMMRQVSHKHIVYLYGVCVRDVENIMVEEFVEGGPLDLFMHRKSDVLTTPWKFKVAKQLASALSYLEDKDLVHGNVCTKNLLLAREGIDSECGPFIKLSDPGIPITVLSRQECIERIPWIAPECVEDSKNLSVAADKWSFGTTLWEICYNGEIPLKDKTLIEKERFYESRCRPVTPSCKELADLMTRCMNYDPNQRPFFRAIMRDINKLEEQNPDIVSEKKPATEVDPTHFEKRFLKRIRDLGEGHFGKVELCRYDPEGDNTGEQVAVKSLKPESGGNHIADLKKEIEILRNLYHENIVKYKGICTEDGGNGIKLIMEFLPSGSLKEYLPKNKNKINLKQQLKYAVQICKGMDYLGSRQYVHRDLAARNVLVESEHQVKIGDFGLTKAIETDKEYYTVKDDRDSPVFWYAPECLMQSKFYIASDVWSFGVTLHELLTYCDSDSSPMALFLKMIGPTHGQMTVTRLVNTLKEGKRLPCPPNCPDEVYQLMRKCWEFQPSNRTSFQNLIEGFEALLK
Procedure: as §2

[1] = Cytotoxicity test (cell counting kit-8), summary over respective cells; type: cell-based; conditions: African green monkey, human, mouse, Chinese hamster, NIH3T3 and CHO-K1 cells; criterion 10 μM; VERO, HFL-1, L929, NIH3T3, CHO-K1
Description: as §1

VERO = assay: Cytotoxicity test (cell counting kit-8); type: cell-based, African green monkey; conditions: Chlorocebus sabaeus, WST-8
Description: as §1

human CYP isozymes = assay: CYP450 assay, summary over human CYP isozymes; type: in vitro ADME; conditions: 10 μM
Procedure: Compound 5 and a positive control stock solution were diluted with water to prepare a 40 μM working solution, and a solution containing an enzyme and a substrate was prepared using water and buffer. Compound 5/control/positive control and the solution were each dispensed on a 96-well and preincubated at 37° C. for 10 minutes. The resulting substance was reacted with NADPH for 20 minutes at 37° C. and a detection reagent was added to terminate the reaction. After stabilization at room temperature for 20 minutes, a luminescence signal was measured.

CYP 2C19 = CYP 2C19 (Homo sapiens, UniProt P33261); assay: CYP450 assay (luminescence); type: in vitro ADME; conditions: CYP 2C19 enzyme with substrate, compound at 10 μM, read-out: inhibitory activity against human CYP 2C19
CYP 2C19, sequence (P33261 whole entry): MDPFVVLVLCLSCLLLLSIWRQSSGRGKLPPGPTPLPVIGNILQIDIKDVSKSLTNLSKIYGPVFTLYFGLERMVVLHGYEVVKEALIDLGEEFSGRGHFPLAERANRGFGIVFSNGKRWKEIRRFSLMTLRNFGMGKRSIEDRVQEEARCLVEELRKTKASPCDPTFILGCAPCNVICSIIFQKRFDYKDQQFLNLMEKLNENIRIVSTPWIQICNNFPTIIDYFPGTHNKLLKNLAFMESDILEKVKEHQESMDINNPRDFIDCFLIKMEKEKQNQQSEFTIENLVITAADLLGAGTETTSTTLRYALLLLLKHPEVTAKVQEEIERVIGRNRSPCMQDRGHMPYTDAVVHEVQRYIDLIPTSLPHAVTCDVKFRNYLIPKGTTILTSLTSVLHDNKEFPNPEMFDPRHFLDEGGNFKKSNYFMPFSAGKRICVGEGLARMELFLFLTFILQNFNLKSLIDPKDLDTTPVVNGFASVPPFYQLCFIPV
Procedure: (§3) The resulting substance was reacted with NADPH for 20 minutes at 37° C. and a detection reagent was added to terminate the reaction. After stabilization at room temperature for 20 minutes, a luminescence signal was measured.

CYP 2D6 = CYP 2D6 (Homo sapiens, UniProt P10635); assay: CYP450 assay (luminescence); type: in vitro ADME; conditions: CYP 2D6 enzyme with substrate, compound at 10 μM, read-out: inhibitory activity against human CYP 2D6
CYP 2D6, sequence (P10635 whole entry): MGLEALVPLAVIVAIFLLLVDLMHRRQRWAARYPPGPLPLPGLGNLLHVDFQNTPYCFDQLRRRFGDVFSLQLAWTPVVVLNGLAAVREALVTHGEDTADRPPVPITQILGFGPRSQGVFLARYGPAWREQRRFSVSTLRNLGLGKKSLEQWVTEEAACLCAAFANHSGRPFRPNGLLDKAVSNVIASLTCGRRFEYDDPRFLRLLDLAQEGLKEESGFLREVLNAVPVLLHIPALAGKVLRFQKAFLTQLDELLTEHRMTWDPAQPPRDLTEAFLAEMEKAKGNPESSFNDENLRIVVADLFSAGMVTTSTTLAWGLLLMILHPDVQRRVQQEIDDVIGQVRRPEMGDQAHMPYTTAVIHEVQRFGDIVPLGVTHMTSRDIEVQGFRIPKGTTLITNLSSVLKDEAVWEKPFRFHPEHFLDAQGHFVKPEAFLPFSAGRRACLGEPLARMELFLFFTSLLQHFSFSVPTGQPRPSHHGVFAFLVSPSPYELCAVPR
Procedure: as §3

CYP 2C9 = CYP 2C9 (Homo sapiens, UniProt P11712); assay: CYP450 assay (luminescence); type: in vitro ADME; conditions: CYP 2C9 enzyme with substrate, compound at 10 μM, read-out: inhibitory activity against human CYP 2C9
CYP 2C9, sequence (P11712 whole entry): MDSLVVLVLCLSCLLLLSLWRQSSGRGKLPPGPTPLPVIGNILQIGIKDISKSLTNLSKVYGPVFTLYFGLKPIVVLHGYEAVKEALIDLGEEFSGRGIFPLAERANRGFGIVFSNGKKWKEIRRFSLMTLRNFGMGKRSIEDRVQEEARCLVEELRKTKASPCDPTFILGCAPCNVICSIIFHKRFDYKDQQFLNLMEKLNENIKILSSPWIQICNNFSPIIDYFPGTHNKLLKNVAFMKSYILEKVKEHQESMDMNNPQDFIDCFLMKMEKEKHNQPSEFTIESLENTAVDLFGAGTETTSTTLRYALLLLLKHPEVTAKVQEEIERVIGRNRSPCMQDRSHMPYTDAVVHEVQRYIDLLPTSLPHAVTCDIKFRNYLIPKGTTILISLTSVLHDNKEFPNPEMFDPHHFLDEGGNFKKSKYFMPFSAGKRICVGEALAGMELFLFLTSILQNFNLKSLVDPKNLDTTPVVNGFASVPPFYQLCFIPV
Procedure: as §3

Ba/F3 parental = Ba/F3 parental growth inhibition; type: cell-based; conditions: Mus musculus, BaF3; Ba/F3 parental cells
CHO-K1 = assay: Cytotoxicity test (cell counting kit-8); type: cell-based, Chinese hamster; conditions: Cricetulus griseus, WST-8
Description: as §1

FLT3 (D835Y) = biological target: T6, FLT3 (D835Y) (Homo sapiens, UniProt P36888, D835Y); assay: FLT3 mutant enzyme activity, HotSpot assay; type: biochemical; conditions: ATP 10 μM
T6 construct: purchased Reaction Biology Corporation
Procedure: as §2

FLT3 (ITD)-NPOS = FLT3 (ITD)-NPOS (Homo sapiens, UniProt P36888); assay: FLT3 mutant enzyme activity, HotSpot assay; type: biochemical; conditions: ATP 10 μM
Procedure: as §2

FLT3 (ITD) = FLT3 (ITD) (Homo sapiens, UniProt P36888); assay: FLT3 mutant enzyme activity, HotSpot assay; type: biochemical; conditions: ATP 10 μM
Procedure: as §2

Ba/F3 FLT3-ITD = Ba/F3 FLT3-ITD growth inhibition; type: cell-based; conditions: Ba/F3 FLT3-ITD cells

IC50 (JAK2(V617F)): 25.6 nM
IC50 (JAK2): 8.85 nM
IC50 (ARK5/NUAK1): 2.4 nM
IC50 (ACK1): 51.3 nM
IC50 (JAK1): 16.1 nM
CYP inhibition conclusion (more than 50% inhibition needs attention) (human CYP isozymes): stable
inhibition at 20 min, 10 µM (CYP 2C19): 15.9%
inhibition at 20 min, 10 µM (CYP 2D6): 14.4%
inhibition at 20 min, 10 µM (CYP 2C9): < 1%
IC50 (FLT3 (D835Y)): < 1 nM
IC50 (FLT3 (ITD)-NPOS): 4.5 nM
IC50 (FLT3 (ITD)): 1.5 nM
GI50 (Ba/F3 FLT3-ITD): 42 nM
Compound: Clc1cnc(Nc2ccc(OCCN3CCCC3)cc2)nc1NCc1ccco1 [Compound 5, 5-chloro-4-(furan-2-yl)methylamino-2-[4-{2-(pyrrolidin-1-yl)ethoxy}phenylamino]pyrimidine]
IC50 (L929): 40.3 µM
IC50 (HFL-1): 35.6 µM
IC50 (NIH3T3): > 100 µM
IC50 [1]: ≥ 10000 nM
IC50 (VERO): 19.7 µM
GI50 (Ba/F3 parental): 1820 nM
IC50 (CHO-K1): > 100 µM

Reference: patent US10683282B2, “Multi-substituted pyrimidine derivatives with excellent kinase inhibitory activities” (KOREA INSTITUTE OF SCIENCE AND TECHNOLOGY, priority 2018, dated 2020)
